{"source": "patent US9108969B2", "about": "“Substituted tricyclic acid derivatives as S1P1 receptor agonists useful in the treatment of autoimmune and inflammatory disorders” (Arena Pharmaceuticals, Inc., priority 2008, dated 2015)", "key": {"[1]": {"test_system": "collagen-induced arthritis", "assay": "Collagen-induced arthritis assay", "format": "in vivo, Female Lewis rats", "settings": "rat, 0.3, 1 and 3 mg/kg p.o. q.d. day 0 through day 16, FIG. 14", "procedure": "Female Lewis rats were used in this study. Acclimated animals were anesthetized with isoflurane and given the first collagen injection (day 0). On day 6, they were anesthetized again for the second collagen injection. Collagen was prepared by making a 4 mg/mL solution in 0.01 N acetic acid. Equal volumes of collagen and incomplete Freund's adjuvant were emulsified by hand mixing until a bead of this material held its form when placed in water. Each animal received 300 μL of the mixture each time, spread over 3 subcutaneous sites on the back.\nTreatment (p.o., q.d., 5 mL/kg dosing volume) began on day 0 and continued through day 16 with vehicle or compounds given at 24 h intervals. Rats were weighed on days 0, 3, 6 and 9 through 17 and caliper measurements of the ankles taken on days 9 through 17.\nThe second enantiomer isolated after resolution of compound 12 by HPLC (retention time: 18 min per the conditions reported in Example 1.3), was dosed at 0.3, 1 and 3 mg/kg."}, "human S1P1 receptor": {"target": "T1, human S1P1 receptor (Homo sapiens, UniProt P21453)", "T1 construct": "expressed in transfected cells; host or cells: CHO-K1 (ATCC CCL-61), stably transfected", "T1 sequence (P21453 whole entry)": "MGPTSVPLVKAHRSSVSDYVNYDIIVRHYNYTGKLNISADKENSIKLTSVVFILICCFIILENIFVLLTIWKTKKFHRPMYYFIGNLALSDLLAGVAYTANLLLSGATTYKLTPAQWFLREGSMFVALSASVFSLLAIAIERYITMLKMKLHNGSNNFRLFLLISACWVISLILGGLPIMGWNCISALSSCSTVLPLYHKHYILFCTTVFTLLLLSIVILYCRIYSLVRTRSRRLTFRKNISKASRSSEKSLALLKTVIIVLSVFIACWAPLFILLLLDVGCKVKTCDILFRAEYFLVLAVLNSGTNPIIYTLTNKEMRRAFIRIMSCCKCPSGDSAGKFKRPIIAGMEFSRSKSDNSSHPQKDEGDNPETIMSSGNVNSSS", "assay": "HTRF assay for direct cAMP measurement (S1P1 agonism)", "format": "cell-based", "settings": "recombinant CHO-K1 cells stably transfected with S1P1; decrease of cAMP", "text": "Compounds were screened for agonists of the S1P1 receptor (e.g., human S1P1 receptor) using the HTRF® assay for direct cAMP measurement (Gabriel et al., Assay and Drug Development Technologies, 1:291-303, 2003) and recombinant CHO-K1 cells stably transfected with S1P1. CHO-K1 cells were obtained from ATCC® (Manassas, Va.; Catalog #CCL-61). An agonist of the S1P1 receptor was detected in the HTRF® assay for direct cAMP measurement as a compound which decreased cAMP concentration. HTRF® assay also was used to determine EC50 values for S1P1 receptor agonists.\nPrinciple of the Assay:HTRF® assay kit was purchased from Cisbio-US, Inc. (Bedford, Mass.; Catalog #62AM4PEC). The HTRF® assay supported by the kit is a competitive immunoassay between endogenous cAMP produced by the CHO-K 1 cells and tracer cAMP labeled with the dye d2. The tracer binding is visualized by a monoclonal anti-cAMP antibody labeled with Cryptate. The specific signal (i.e., fluorescence resonance energy transfer, FRET) is inversely proportional to the concentration of unlabeled cAMP in the standard or sample.\nStandard Curve:The fluorescence ratio (665 nm/620 nm) of the standards (0.17 to 712 nM cAMP) included in the assay was calculated and used to generate a cAMP standard curve according to the kit manufacturer's instructions. The fluorescence ratio of the samples (test compound or compound buffer) was calculated and used to deduce respective cAMP concentrations by reference to the cAMP standard curve.\nSetup of the Assay: The HTRF® assay was carried out using a two-step protocol essentially according to the kit manufacturer's instructions, in 20 μL total volume per well in 384-well plate format (ProxiPlates; PerkinElmer, Fremont, Calif.; catalog #6008280). To each of the experimental wells was transferred 1500 recombinant CHO-K1 cells in 5 μL phosphate buffered saline containing calcium chloride and magnesium chloride (PBS+; Invitrogen, Carlsbad, Calif.; catalog #14040) supplemented with IBMX (250 μM) and rolipram (20 μM) (phosphodiesterase inhibitors; Sigma-Aldrich, St. Louis, Mo.; catalog #15879 and catalog #R6520, respectively), followed by test compound in 5 μL compound buffer (PBS+ supplemented with […] (water-soluble forskolin derivative; SignaGen Laboratories, Gaithersburg, Md.; catalog #PKI-NKH477-010)) or 5 μL compound buffer. The plate was then incubated at room temperature for 1 h. To each well was then added 5 μL cAMP-d2 conjugate in lysis buffer and 5 μL Cryptate conjugate in lysis buffer according to the kit manufacturer's instructions. The plate was then further incubated at room temperature for 1 hour, after which the assay plate was read.\nAssay Readout: HTRF® readout was accomplished using a PHERAstar (BMG LABTECH Inc., Durham, N.C.) or EnVision™ (PerkinElmer, Fremont Calif.) microplate reader."}, "[2]": {"test_system": "peripheral blood lymphocyte (PBL) count", "assay": "Mouse peripheral lymphocyte lowering (PLL) assay", "format": "in vivo, Male BALB/c mice", "settings": "oral dose, 5 hours post-dose, FIG. 11", "procedure": "Animals: Male BALB/c mice (Charles River Laboratories, Wilmington, Mass.) were housed four per cage and maintained in a humidity-controlled (40 to 60%) and temperature-controlled (68 to 72° F.) facility on a 12 h:12 h light/dark cycle (lights on at 6:30 am) with free access to food (Harlan Teklad, Orange, Calif., Rodent Diet 8604) and water. Mice were allowed one week of habituation to the animal facility before testing.\nPLL Assay: Mice were given an oral dose of Compound 2 or dosing vehicle (0.5% methylcellulose) in a total volume of 10 mL/kg. Peripheral blood samples were collected at 5 hours post-dose. The mice were anesthetized with isoflurane and blood was collected via cardiac puncture. A complete cell count (CBC), including lymphocyte count, was obtained using a CELL-DYN® 3700 (Abbott Laboratories, Abbott Park, Ill.) instrument. Results are presented in FIG. 11, in which peripheral blood lymphocyte (PBL) count is shown for the 5 hour group."}, "[3]": {"test_system": "peripheral blood lymphocyte (PBL) count", "assay": "Rat peripheral lymphocyte lowering (PLL) assay", "format": "in vivo, Male Sprague-Dawley rats", "settings": "1 mg/kg intravenous dose, 5 h post-dose, FIG. 12 and 13", "procedure": "Animals: Male Sprague-Dawley rats (Charles River Laboratories, Hollister, Calif.) were housed and maintained in humidity (40 to 60%) and temperature (68 to 72° F.) controlled facility on a 12 h:12 h light/dark cycle (lights on at 6:30 am) with free access to food (Harlan Teklad, Orange, Calif., Rodent Diet 8604) and water. Rats were allowed (approximately) one week of habituation to the animal facility before testing.\nPLL Assay: Rats were given a 1 mg/kg intravenous dose of the first enantiomer isolated after resolution of compound 12 by HPLC (retention time: 15 min per the conditions reported in Example 1.3), or dosing vehicle (40% hydroxypropyl-cyclodextrin (HPCD)) in a total volume of 1 mL/kg. Peripheral blood samples were collected at 5 h post-dose. Blood was collected via indwelling catheter. A complete cell count (CBC), including lymphocyte count, was obtained using a CELL-DYN® 3700 (Abbott Laboratories, Abbott Park, Ill.) instrument. Results are presented in FIG. 12, in which peripheral blood lymphocyte (PBL) count is shown for the 5 hour group.\nSimilarly, rats were given a 1 mg/kg intravenous dose of the second enantiomer isolated after resolution of compound 12 by HPLC (retention time: 18 min per the conditions reported in Example 1.3), or dosing vehicle (40% hydroxypropyl-cyclodextrin (HPCD)) in a total volume of 1 mL/kg. […]"}, "[4]": {"test_system": "experimental autoimmune uveoretinitis", "settings": "short-term high dose; cited from earlier work"}, "[5]": {"settings": "attributed to agonism of the S1P3 receptor; cited from earlier work"}, "[6]": {"test_system": "spared nerve injury model", "settings": "cited from earlier work"}, "peripheral lymphocytes": {"test_system": "peripheral lymphocytes", "settings": "Hale et al. 2004; cited from earlier work"}, "[7]": {"test_system": "ovariectomy-induced osteoporosis", "settings": "mice; cited from earlier work"}, "[8]": {"test_system": "experimental autoimmune myasthenia gravis (EAMG)", "settings": "prophylactic oral administration, 1 mg/kg, three times a week, C57BL/6 mice; cited from earlier work"}, "[9]": {"test_system": "contact hypersensitivity (CHS)", "settings": "murine; cited from earlier work"}, "[10]": {"test_system": "VEGF-induced vascular permeability", "settings": "mice, oral administration; cited from earlier work"}, "multiple sclerosis": {"test_system": "multiple sclerosis", "settings": "patients with multiple sclerosis, Phase II; cited from earlier work"}}, "data": [{"compound": "O=C(O)CC1CCn2c1cc1cc(OCc3ccc(C4CCCC4)c(C(F)(F)F)c3)ccc12", "note": "(stereo not drawn) [second enantiomer isolated after resolution of compound 12 by HPLC, 2-(7-(4-cyclopentyl-3-(trifluoromethyl)benzyloxy)-2,3-dihydro-1H-pyrrolo[1,2-a]indol-1-yl)acetic acid]", "values": [{"measurement": "reduction of mean ankle diameter compared to vehicle", "setting": "[1]", "value": "exhibited activity for reducing mean ankle diameter"}]}, {"compound": "O=C(O)CC1CCn2c1c(C1CCC1)c1cc(OCc3ccc(C4CCCC4)c(C(F)(F)F)c3)ccc12", "note": "(centres unmarked) [Compound 11, 2-(9-cyclobutyl-7-(4-cyclopentyl-3-(trifluoromethyl)benzyloxy)-2,3-dihydro-1H-pyrrolo[1,2-a]indol-1-yl)acetic acid]", "values": [{"measurement": "EC50", "setting": "human S1P1 receptor", "value": 5.2, "unit": "nM"}]}, {"compound": "CC(C)Oc1ccc(COc2ccc3c(c2)cc2n3CCC2CC(=O)O)cc1C#N", "note": "(centres unmarked) [Compound 6, 2-(7-(3-cyano-4-isopropoxybenzyloxy)-2,3-dihydro-1H-pyrrolo[1,2-a]indol-1-yl)acetic acid]", "values": [{"measurement": "EC50", "setting": "human S1P1 receptor", "value": 0.239, "unit": "nM"}]}, {"compound": "N#Cc1cc(COc2ccc3c(c2)cc2n3CCC2CC(=O)O)cc(OC(F)(F)F)c1", "note": "(centres unmarked) [Compound 2, 2-(7-(3-cyano-5-(trifluoromethoxy)benzyloxy)-2,3-dihydro-1H-pyrrolo[1,2-a]indol-1-yl)acetic acid]", "values": [{"measurement": "peripheral blood lymphocyte (PBL) lowering compared to vehicle", "setting": "[2]", "value": "exhibited activity for inducing PBL lowering (lymphopenia)"}]}, {"compound": "O=C(O)CC1CCn2c1nc1cc(OCc3ccc(C4CCCC4)c(C(F)(F)F)c3)ccc12", "note": "(centres unmarked) [Compound 14, 2-(6-(4-cyclopentyl-3-(trifluoromethyl)benzyloxy)-2,3-dihydro-1H-benzo[d]pyrrolo[1,2-a]imidazol-3-yl)acetic acid]", "values": [{"measurement": "EC50", "setting": "human S1P1 receptor", "value": 6.3, "unit": "nM"}]}, {"compound": "O=C(O)CC1CCn2c1cc1cc(OCc3ccc(C4CCCC4)c(C(F)(F)F)c3)ccc12", "note": "(stereo not drawn) [first enantiomer isolated after resolution of compound 12 by HPLC, 2-(7-(4-cyclopentyl-3-(trifluoromethyl)benzyloxy)-2,3-dihydro-1H-pyrrolo[1,2-a]indol-1-yl)acetic acid]", "values": [{"measurement": "peripheral blood lymphocyte (PBL) lowering compared to vehicle", "setting": "[3]", "value": "exhibited activity for inducing PBL lowering (lymphopenia)"}]}, {"compound": "CCCCCCCCc1ccc(CCC(N)(CO)CO)cc1", "note": "[FTY720]", "values": [{"measurement": "ocular infiltrates", "setting": "[4]", "value": "rapidly reduced ocular infiltrates"}, {"measurement": "adverse event in clinical trials", "setting": "[5]", "value": "transient asymptomatic bradycardia"}, {"measurement": "nociceptive behavior", "setting": "[6]", "value": "reduce the nociceptive behavior"}, {"measurement": "induction of lymphopenia (peripheral lymphocyte lowering)", "setting": "peripheral lymphocytes", "value": "rapidly and reversibly induce lymphopenia"}, {"measurement": "ovariectomy-induced osteoporosis", "setting": "[7]", "value": "relieved ovariectomy-induced osteoporosis"}, {"measurement": "development of EAMG", "setting": "[8]", "value": "completely prevented the development of experimental autoimmune myasthenia gravis"}, {"measurement": "initiation of contact hypersensitivity", "setting": "[9]", "value": "impair initiation of murine contact hypersensitivity"}, {"measurement": "VEGF-induced vascular permeability", "setting": "[10]", "value": "potently blocked VEGF-induced vascular permeability"}, {"measurement": "MRI lesions and clinical disease activity", "setting": "multiple sclerosis", "value": "reduce the number of lesions detected by magnetic resonance imaging (MRI) and clinical disease activity"}]}, {"compound": "O=C(O)CC1CCn2c1c(I)c1cc(OCc3ccc(C4CCCC4)c(C(F)(F)F)c3)ccc12", "note": "(centres unmarked) [Compound 10, 2-(7-(4-cyclopentyl-3-(trifluoromethyl)benzyloxy)-9-iodo-2,3-dihydro-1H-pyrrolo[1,2-a]indol-1-yl)acetic acid]", "values": [{"measurement": "EC50", "setting": "human S1P1 receptor", "value": 0.011, "unit": "nM"}]}, {"compound": "CC(C)Cc1ccc(COc2ccc3c(c2)cc2n3CCC2CC(=O)O)cc1C(F)(F)F", "note": "(centres unmarked) [Compound 4, 2-(7-(4-isobutyl-3-(trifluoromethyl)benzyloxy)-2,3-dihydro-1H-pyrrolo[1,2-a]indol-1-yl)acetic acid]", "values": [{"measurement": "EC50", "setting": "human S1P1 receptor", "value": 0.321, "unit": "nM"}]}]}
